# Data reported in patent US20260103461A1, “ESTROGEN RECEPTOR MODULATORS AND USES THEREOF” (Olema Pharmaceuticals, Inc., priority 2022, published 2026).
# Molecular target: T1, estrogen receptor (Homo sapiens, UniProt P03372)
# T1 construct: endogenous in cells; host or cells: ECC-1 cells
# T1 sequence (P03372 1-595): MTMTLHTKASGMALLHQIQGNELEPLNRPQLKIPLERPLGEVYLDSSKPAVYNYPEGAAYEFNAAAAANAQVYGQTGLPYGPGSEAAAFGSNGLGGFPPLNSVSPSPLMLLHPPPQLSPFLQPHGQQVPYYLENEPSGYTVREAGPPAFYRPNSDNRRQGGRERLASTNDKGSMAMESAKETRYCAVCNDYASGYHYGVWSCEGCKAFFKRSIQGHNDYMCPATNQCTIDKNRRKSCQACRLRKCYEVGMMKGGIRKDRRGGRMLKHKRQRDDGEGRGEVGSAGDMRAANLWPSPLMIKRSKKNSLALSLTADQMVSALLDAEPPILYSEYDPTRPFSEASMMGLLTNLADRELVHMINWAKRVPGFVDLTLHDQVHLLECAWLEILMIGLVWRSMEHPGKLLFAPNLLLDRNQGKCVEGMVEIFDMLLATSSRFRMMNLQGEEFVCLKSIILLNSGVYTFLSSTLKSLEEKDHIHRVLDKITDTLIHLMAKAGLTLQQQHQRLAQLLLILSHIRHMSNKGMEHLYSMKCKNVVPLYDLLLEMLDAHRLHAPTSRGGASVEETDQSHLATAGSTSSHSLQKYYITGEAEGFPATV
# Experiment: AP (alkaline phosphatase) assay in ECC-1 cells, agonist mode and antagonist mode
# Type: cell-based
# Conditions: 3 days, absence of E2 (agonist mode) or 500 pM E2 (antagonist mode), AP activity normalized to 500 pM E2 alone
# Procedure: ECC-1 cells were trypsinized and resuspended in hormone-depleted media and plated at a density of 15 k cells per well into a 96-well plate for at least 4 hours. Cells were treated with test compounds in the absence of E2 (for agonist mode) or in the presence of 500 pM E2 (for antagonist mode) for 3 days and plates were subsequently frozen at −80° C. Thawed plates were incubated with a chromogenic substrate of AP, p-nitrophenyl phosphate (Thermo Fisher Scientific), for 40 minutes at 42° C., and absorbances were read at 405 nm. AP activity was normalized to the activity of 500 pM E2 alone.
# The compound numbers correspond to the compound numbers of Table 1 and 2. Compounds having an activity designated as “+” provided estrogen receptor agonism having (i) at least 80% increase in the E2-normalized signal in the AP assay (agonist mode) and (ii) no more than 80% reduction in the E2-normalized signal in the AP assay (antagonist mode). Compounds having an activity designated as “++” provided estrogen receptor antagonism having (i) between 10% and 80% increase in the E2-normalized signal in the AP assay (agonist mode) and (ii) between 10% and 80% reduction in the E2-normalized signal in the AP assay (antagonist mode).
row,SMILES,"Activity (estrogen receptor modulation, agonism and antagonism)"
1,"C[C@@H]1Cc2c([nH]c3ccccc23)[C@@H](c2cnc(O[C@H]3CN(CCCF)C[C@@H]3F)s2)N1CC(F)(F)CO [Example I-32, 2,2-difluoro-3-[(1S,3R)-1-[2-[(3S,4S)-4-fluoro-1-(3-fluoropropyl)pyrrolidin-3-yl]oxythiazol-5-yl]-3-methyl-1,3,4,9-tetrahydropyrido[3,4-b]indol-2-yl]propan-1-ol]",+ (estrogen receptor agonism having (i) at least 80% increase in the E2-normalized signal in the AP assay (agonist mode) and (ii) no more than 80% reduction in the E2-normalized signal in the AP assay (antagonist mode))
2,"C[C@@H]1Cc2c([nH]c3ccccc23)[C@@H](c2cnc(O[C@H]3CN(CCCF)C[C@H]3F)s2)N1CC(F)(F)CO [Example I-33, 2,2-difluoro-3-[(1S,3R)-1-[2-[(3S,4R)-4-fluoro-1-(3-fluoropropyl)pyrrolidin-3-yl]oxythiazol-5-yl]-3-methyl-1,3,4,9-tetrahydropyrido[3,4-b]indol-2-yl]propan-1-ol]",+++ (estrogen receptor antagonism (i) with pIC50 greater than 7.5 and at least a 10% reduction in the E2-normalized signal in the AP assay (antagonist mode); and no more than 10% increase in E2-normalized signal in the AP assay (agonist mode))
3,"C[C@@H]1Cc2c([nH]c3ccccc23)[C@@H](c2cnc(O[C@@H]3CCN(CCCF)[C@H]3C)s2)N1CC(F)(F)CO [Example I-34, 2,2-difluoro-3-[(1S,3R)-1-[2-[(2S,3R)-1-(3-fluoropropyl)-2-methyl-pyrrolidin-3-yl]oxythiazol-5-yl]-3-methyl-1,3,4,9-tetrahydropyrido[3,4-b]indol-2-yl]propan-1-ol]",+ (estrogen receptor agonism having (i) at least 80% increase in the E2-normalized signal in the AP assay (agonist mode) and (ii) no more than 80% reduction in the E2-normalized signal in the AP assay (antagonist mode))
4,"C[C@@H]1[C@H](Oc2ncc([C@@H]3c4[nH]c5ccccc5c4C[C@@H](C)N3CC(F)(F)CO)s2)CCN1CCCF [Example I-35, 2,2-difluoro-3-[(1S,3R)-1-[2-[(2R,3R)-1-(3-fluoropropyl)-2-methyl-pyrrolidin-3-yl]oxythiazol-5-yl]-3-methyl-1,3,4,9-tetrahydropyrido[3,4-b]indol-2-yl]propan-1-ol]",+ (estrogen receptor agonism having (i) at least 80% increase in the E2-normalized signal in the AP assay (agonist mode) and (ii) no more than 80% reduction in the E2-normalized signal in the AP assay (antagonist mode))
5,"C[C@@H]1Cc2c([nH]c3ccccc23)[C@@H](c2cnc(O[C@@H]3CON(CCCF)C3)s2)N1CC(F)(F)CO [Example I-36, 2,2-difluoro-3-[(1S,3R)-1-[2-[(4S)-2-(3-fluoropropyl)isoxazolidin-4-yl]oxythiazol-5-yl]-3-methyl-1,3,4,9-tetrahydropyrido[3,4-b]indol-2-yl]propan-1-ol]",+ (estrogen receptor agonism having (i) at least 80% increase in the E2-normalized signal in the AP assay (agonist mode) and (ii) no more than 80% reduction in the E2-normalized signal in the AP assay (antagonist mode))
6,"C[C@@H]1Cc2c([nH]c3ccccc23)[C@@H](c2cnc(O[C@@H]3CCCN(CCCF)C3)s2)N1CC(F)(F)CO [Example I-37, 2,2-difluoro-3-[(1S,3R)-1-[2-[[(3R)-1-(3-fluoropropyl)-3-piperidyl]oxy]thiazol-5-yl]-3-methyl-1,3,4,9-tetrahydropyrido[3,4-b]indol-2-yl]propan-1-ol]",+++ (estrogen receptor antagonism (i) with pIC50 greater than 7.5 and at least a 10% reduction in the E2-normalized signal in the AP assay (antagonist mode); and no more than 10% increase in E2-normalized signal in the AP assay (agonist mode))
7,C[C@@H]1Cc2c([nH]c3ccccc23)[C@@H](c2cnc(O[C@H]3CCCN(CCCF)C3)s2)N1CC(F)(F)CO [Example I-38],+ (estrogen receptor agonism having (i) at least 80% increase in the E2-normalized signal in the AP assay (agonist mode) and (ii) no more than 80% reduction in the E2-normalized signal in the AP assay (antagonist mode))
